Where a name gives a salt, the structure may show the parent alone.
System: Raf-1^gof intestinal tumors
Experiment: Luciferase screen of FDA-approved (NCI) drugs in 96-well plates, flies with Raf-1^gof intestinal tumors; as to Avg (3 + 6): test concentration or dose not given here; as to Log2 (fold): test concentration or dose not given here
Format: in vivo, Drosophila
[1] = average of Day 3 and Day 6 fold
[2] = log2 of the Day 3 fold difference in luciferase relative to DMSO controls
[3] = luciferase activity relative to DMSO controls, single dose of drug for three days, 96-well plates
[4] = six-day protocol: single dose for three days, then another dose for three more days

## COc1cccc2c1C(=O)c1c(O)c3c(c(O)c1C2=O)C[C@@](O)(C(=O)CO)C[C@@H]3O[C@H]1C[C@H](N)[C@H](O)[C@H](C)O1 [Doxorubicin HCl]
[1]
  Avg (3 + 6): 1.084 fold
[2]
  Log2 (fold): −0.090
[3]
  Day 3 Fold: 0.939 fold
[4]
  Day 6 Fold: 1.228 fold

## C#Cc1cccc(Nc2ncnc3cc(OCCOC)c(OCCOC)cc23)c1 [Erlotinib HCl]
In vivo
  Avg (3 + 6): 0.986 fold
  Day 3 Fold: 1.030 fold
  Day 6 Fold: 0.942 fold
  Log2 (fold): 0.042

## C=C1C[C@@H]2[C@H](CC[C@]3(C)C(=O)CC[C@@H]23)[C@@]2(C)C=CC(=O)C=C12 [Exemestane]
[1]
  Avg (3 + 6): 0.739 fold
[2]
  Log2 (fold): −0.246
[3]
  Day 3 Fold: 0.843 fold
[4]
  Day 6 Fold: 0.634 fold

## O=c1[nH]c(=O)n([C@H]2C[C@H](O)[C@@H](CO)O2)cc1F [Floxuridine]
[1]
  Avg (3 + 6): 0.149 fold
[2]
  Log2 (fold): −2.204
[3]
  Day 3 Fold: 0.217 fold
[4]
  Day 6 Fold: 0.080 fold

## Nc1nc(F)nc2c1ncn2[C@@H]1O[C@H](CO)[C@@H](O)[C@@H]1O [Fludarabine]
[1]
  Avg (3 + 6): 1.191 fold
po, 72 h
  Day 3 Fold: 1.192 fold
  Log2 (fold): 0.253

## O=c1[nH]cc(F)c(=O)[nH]1 [Fluorouracil]
[1]
  Avg (3 + 6): 0.770 fold
[2]
  Log2 (fold): −0.448
[3]
  Day 3 Fold: 0.733 fold
[4]
  Day 6 Fold: 0.806 fold

## C[C@]12CC[C@@H]3c4ccc(O)cc4C[C@@H](CCCCCCCCC[S+]([O-])CCCC(F)(F)C(F)(F)F)[C@H]3[C@@H]1CC[C@@H]2O (some centres unmarked) [Fulvestrant]
[1]
  Avg (3 + 6): 1.172 fold
[2]
  Log2 (fold): −0.221
[3]
  Day 3 Fold: 0.858 fold
[4]
  Day 6 Fold: 1.486 fold

## COc1cc2ncnc(Nc3ccc(F)c(Cl)c3)c2cc1OCCCN1CCOCC1 [Gefitinib]
In vivo
  Avg (3 + 6): 0.886 fold

## Nc1ccn([C@@H]2O[C@H](CO)[C@@H](O)C2(F)F)c(=O)n1 [Gemcitabine HCl]
[1]
  Avg (3 + 6): 0.104 fold
[2]
  Log2 (fold): −2.666
[3]
  Day 3 Fold: 0.158 fold
[4]
  Day 6 Fold: 0.051 fold

## NC(=O)NO [Hydroxyurea]
[1]
  Avg (3 + 6): 0.990 fold
[2]
  Log2 (fold): −0.184
[3]
  Day 3 Fold: 0.880 fold
[4]
  Day 6 Fold: 1.099 fold

## O=P1(NCCCl)OCCCN1CCCl (centres unmarked) [Ifosfamide]
[1]
  Avg (3 + 6): 1.004 fold
[2]
  Log2 (fold): −0.026
[3]
  Day 3 Fold: 0.982 fold
[4]
  Day 6 Fold: 1.026 fold

## Cc1ccc(NC(=O)c2ccc(CN3CCN(C)CC3)cc2)cc1Nc1nccc(-c2cccnc2)n1 [Imatinib]
[1]
  Avg (3 + 6): 0.674 fold
[2]
  Log2 (fold): −0.558
[3]
  Day 3 Fold: 0.679 fold
[4]
  Day 6 Fold: 0.670 fold

## CC(C)Cn1cnc2c(N)nc3ccccc3c21 [Imiquimod]
[1]
  Avg (3 + 6): 0.888 fold
[2]
  Log2 (fold): 0.086
[3]
  Day 3 Fold: 1.061 fold
[4]
  Day 6 Fold: 0.715 fold

## CCc1c2c(nc3ccc(OC(=O)N4CCC(N5CCCCC5)CC4)cc13)-c1cc3c(c(=O)n1C2)COC(=O)[C@]3(O)CC [Irinotecan HCl]
In vivo
  Avg (3 + 6): 0.705 fold
  Day 3 Fold: 0.870 fold
  Day 6 Fold: 0.541 fold
  Log2 (fold): −0.201

## C/C(=C\c1csc(C)n1)[C@@H]1C[C@@H]2O[C@]2(C)CCC[C@H](C)[C@H](O)[C@@H](C)C(=O)C(C)(C)[C@@H](O)CC(=O)N1 [Ixabepilone]
[1]
  Avg (3 + 6): 0.765 fold
[2]
  Log2 (fold): −0.009
[3]
  Day 3 Fold: 0.994 fold
[4]
  Day 6 Fold: 0.536 fold

## CS(=O)(=O)CCNCc1ccc(-c2ccc3ncnc(Nc4ccc(OCc5cccc(F)c5)c(Cl)c4)c3c2)o1 [Lapatinib]
[1]
  Avg (3 + 6): 0.976 fold
[2]
  Log2 (fold): −0.097
[3]
  Day 3 Fold: 0.935 fold
[4]
  Day 6 Fold: 1.017 fold

## Nc1cccc2c1CN(C1CCC(=O)NC1=O)C2=O (centres unmarked) [Lenalidomide]
[1]
  Avg (3 + 6): 0.853 fold
[2]
  Log2 (fold): −0.117
[3]
  Day 3 Fold: 0.922 fold
[4]
  Day 6 Fold: 0.784 fold

## N#Cc1ccc(C(c2ccc(C#N)cc2)n2cncn2)cc1 [Letrozole]
[1]
  Avg (3 + 6): 1.302 fold
[2]
  Log2 (fold): 0.337
[3]
  Day 3 Fold: 1.263 fold
[4]
  Day 6 Fold: 1.342 fold

## O=NN(CCCl)C(=O)NC1CCCCC1 [Lomustine, CCNU, Lomustine]
[1]
  Avg (3 + 6): 0.712 fold
po, 72 h
  Day 3 Fold: 0.651 fold
  Log2 (fold): −0.619

## CC(=O)O[C@]1(C(C)=O)CC[C@H]2[C@@H]3C=C(C)C4=CC(=O)CC[C@]4(C)[C@H]3CC[C@@]21C [Megestrol acetate]
[1]
  Avg (3 + 6): 1.219 fold
[2]
  Log2 (fold): 0.418
[3]
  Day 3 Fold: 1.336 fold
[4]
  Day 6 Fold: 1.101 fold

## N[C@@H](Cc1ccc(N(CCCl)CCCl)cc1)C(=O)O [Melphalan]
[1]
  Avg (3 + 6): 0.939 fold
[2]
  Log2 (fold): 0.001
[3]
  Day 3 Fold: 1.001 fold
[4]
  Day 6 Fold: 0.876 fold

## S=c1nc[nH]c2nc[nH]c12 [Mercaptopurine]
[1]
  Avg (3 + 6): 0.945 fold
[2]
  Log2 (fold): 0.101
[3]
  Day 3 Fold: 1.072 fold
[4]
  Day 6 Fold: 0.818 fold

## COc1c2occc2cc2ccc(=O)oc12 [Methoxsalen]
[1]
  Avg (3 + 6): 0.927 fold
[2]
  Log2 (fold): −0.016
[3]
  Day 3 Fold: 0.989 fold
[4]
  Day 6 Fold: 0.866 fold

## Clc1ccc(C(c2ccccc2Cl)C(Cl)Cl)cc1 (centres unmarked) [Mitotane]
In vivo
  Avg (3 + 6): 0.882 fold
  Day 3 Fold: 0.827 fold
  Day 6 Fold: 0.938 fold
  Log2 (fold): −0.274

## O=C1c2c(O)ccc(O)c2C(=O)c2c(NCCNCCO)ccc(NCCNCCO)c21 [Mitoxantrone]
[1]
  Avg (3 + 6): 0.883 fold
[2]
  Log2 (fold): −0.303
[3]
  Day 3 Fold: 0.810 fold
[4]
  Day 6 Fold: 0.955 fold

## COc1nc(N)nc2c1ncn2[C@@H]1O[C@H](CO)[C@@H](O)[C@@H]1O [Nelarabine]
[1]
  Avg (3 + 6): 1.194 fold
[2]
  Log2 (fold): 0.166
[3]
  Day 3 Fold: 1.122 fold
[4]
  Day 6 Fold: 1.266 fold

## Cc1cn(-c2cc(NC(=O)c3ccc(C)c(Nc4nccc(-c5cccnc5)n4)c3)cc(C(F)(F)F)c2)cn1 [Nilotinib]
[1]
  Avg (3 + 6): 0.804 fold
[2]
  Log2 (fold): −0.615
[3]
  Day 3 Fold: 0.653 fold
[4]
  Day 6 Fold: 0.956 fold

## O=C1[O][Pt]2([NH][C@@H]3CCCC[C@H]3[NH]2)[O]C1=O [Oxaliplatin]
[1]
  Avg (3 + 6): 1.082 fold
[2]
  Log2 (fold): 0.296
[3]
  Day 3 Fold: 1.227 fold
[4]
  Day 6 Fold: 0.936 fold

## Nc1nc2[nH]cc(CCc3ccc(C(=O)N[C@@H](CCC(=O)O)C(=O)O)cc3)c2c(=O)[nH]1 [Pemetrexed]
[1]
  Avg (3 + 6): 0.365 fold
[2]
  Log2 (fold): −0.783
[3]
  Day 3 Fold: 0.581 fold
[4]
  Day 6 Fold: 0.149 fold

## OC[C@H]1O[C@@H](n2cnc3c2NC=NC[C@H]3O)C[C@@H]1O [Pentostatin]
[1]
  Avg (3 + 6): 0.951 fold
po, 72 h
  Day 3 Fold: 1.232 fold
  Log2 (fold): 0.301

## O=C(CCBr)N1CCN(C(=O)CCBr)CC1 [Pipobroman]
[1]
  Avg (3 + 6): 0.853 fold
[2]
  Log2 (fold): −0.011
[3]
  Day 3 Fold: 0.992 fold
[4]
  Day 6 Fold: 0.714 fold

## CNNCc1ccc(C(=O)NC(C)C)cc1 [Procarbazine]
[1]
  Avg (3 + 6): 1.119 fold
[2]
  Log2 (fold): 0.470
[3]
  Day 3 Fold: 1.385 fold
[4]
  Day 6 Fold: 0.854 fold
